The supplement of paper PMC10307832

Key:
Assay in all cases: relative viability (nuclei count vs DMSO), 5 days (fraction); higher = more cells survive
BEN = tested on: BEN
In short: (§1)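 Values are medians from duplicate plates. Each reflects relative viability, defined as the nuclei count of treated wells over that of vehicle wells. Lung cancer cell lines in 1536-well plates were pin-tool dosed one day after seeding with one drug alone or with a fixed anchor-drug dose plus five library-drug doses (not always all listed) in √10 steps, then fixed, stained and imaged at 4× after 5 days.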

CAL-12T = tested on: CAL-12T
In short: as §1

COR-L23 = tested on: COR-L23
In short: as §1

HCC-366 = tested on: HCC-366
In short: as §1

LOU-NH91 = tested on: LOU-NH91
In short: as §1

LU99A = tested on: LU99A
In short: as §1

NCI-H1355 = tested on: NCI-H1355
In short: as §1

NCI-H1437 = tested on: NCI-H1437
In short: as §1

NCI-H1563 = tested on: NCI-H1563
In short: as §1

NCI-H1650 = tested on: NCI-H1650
In short: as §1

NCI-H1651 = tested on: NCI-H1651
In short: as §1

NCI-H1734 = tested on: NCI-H1734
In short: as §1

NCI-H1793 = tested on: NCI-H1793
In short: as §1

NCI-H1975 = tested on: NCI-H1975
In short: as §1

NCI-H2023 = tested on: NCI-H2023
In short: as §1

NCI-H2085 = tested on: NCI-H2085
In short: as §1

NCI-H2342 = tested on: NCI-H2342
In short: as §1

NCI-H358 = tested on: NCI-H358
In short: as §1

NCI-H441 = tested on: NCI-H441
In short: as §1

NCI-H460 = tested on: NCI-H460
In short: as §1

NCI-H838 = tested on: NCI-H838
In short: as §1

SK-LU-1 = tested on: SK-LU-1
In short: as §1

SMILES: Cc1sc2c(c1C)C(c1ccc(Cl)cc1)=N[C@@H](CC(=O)OC(C)(C)C)c1nnc(C)n1-2 [JQ1] + COc1cc2c(Oc3ccc(NC(=O)C4(C(=O)Nc5ccc(F)cc5)CC4)cc3F)ccnc2cc1OCCCN1CCOCC1 [Foretinib] (partner 0.25 µM)
- relative viability (BEN; first compound 0.04 µM): 0.482
- relative viability (BEN; first compound 0.1265 µM): 0.529
- relative viability (BEN; first compound 0.4 µM): 0.495
- relative viability (BEN; first compound 1.265 µM): 0.327
- relative viability (BEN; first compound 4 µM): 0.262
- relative viability (CAL-12T; first compound 0.04 µM): 1.16
- relative viability (CAL-12T; first compound 0.1265 µM): 0.747
- relative viability (CAL-12T; first compound 0.4 µM): 0.858
- relative viability (CAL-12T; first compound 1.265 µM): 0.351
- relative viability (CAL-12T; first compound 4 µM): 0.307
- relative viability (COR-L23; first compound 0.04 µM): 0.98
- relative viability (COR-L23; first compound 0.1265 µM): 0.73
- relative viability (COR-L23; first compound 0.4 µM): 0.892
- relative viability (COR-L23; first compound 1.265 µM): 0.663
- relative viability (COR-L23; first compound 4 µM): 0.432
- relative viability (HCC-366; first compound 0.04 µM): 0.994
- relative viability (HCC-366; first compound 0.4 µM): 0.827
- relative viability (HCC-366; first compound 1.265 µM): 0.359
- relative viability (HCC-366; first compound 4 µM): 0.266
- relative viability (LOU-NH91; first compound 0.04 µM): 0.944
- relative viability (LOU-NH91; first compound 0.1265 µM): 0.777
- relative viability (LOU-NH91; first compound 0.4 µM): 0.618
- relative viability (LOU-NH91; first compound 1.265 µM): 0.625
- relative viability (LOU-NH91; first compound 4 µM): 0.482
- relative viability (LU99A; first compound 0.04 µM): 0.821
- relative viability (LU99A; first compound 0.1265 µM): 0.85
- relative viability (LU99A; first compound 0.4 µM): 0.559
- relative viability (LU99A; first compound 1.265 µM): 0.374
- relative viability (LU99A; first compound 4 µM): 0.304
- relative viability (NCI-H1355; first compound 0.04 µM): 0.925
- relative viability (NCI-H1355; first compound 0.1265 µM): 0.936
- relative viability (NCI-H1355; first compound 0.4 µM): 0.735
- relative viability (NCI-H1355; first compound 1.265 µM): 0.677
- relative viability (NCI-H1355; first compound 4 µM): 0.562
- relative viability (NCI-H1437; first compound 0.04 µM): 1.11
- relative viability (NCI-H1437; first compound 0.1265 µM): 1.23
- relative viability (NCI-H1437; first compound 0.4 µM): 1.03
- relative viability (NCI-H1437; first compound 1.265 µM): 0.464
- relative viability (NCI-H1437; first compound 4 µM): 0.384
- relative viability (NCI-H1563; first compound 0.04 µM): 0.96
- relative viability (NCI-H1563; first compound 0.1265 µM): 0.733
- relative viability (NCI-H1563; first compound 0.4 µM): 0.756
- relative viability (NCI-H1563; first compound 1.265 µM): 0.681
- relative viability (NCI-H1563; first compound 4 µM): 0.692
- relative viability (NCI-H1650; first compound 0.04 µM): 0.894
- relative viability (NCI-H1650; first compound 0.1265 µM): 0.656
- relative viability (NCI-H1650; first compound 0.4 µM): 0.568
- relative viability (NCI-H1650; first compound 1.265 µM): 0.26
- relative viability (NCI-H1650; first compound 4 µM): 0.161
- relative viability (NCI-H1651; first compound 0.04 µM): 0.904
- relative viability (NCI-H1651; first compound 0.1265 µM): 0.787
- relative viability (NCI-H1651; first compound 0.4 µM): 0.625
- relative viability (NCI-H1651; first compound 1.265 µM): 0.352
- relative viability (NCI-H1651; first compound 4 µM): 0.365
- relative viability (NCI-H1734; first compound 0.04 µM): 0.963
- relative viability (NCI-H1734; first compound 0.1265 µM): 0.834
- relative viability (NCI-H1734; first compound 0.4 µM): 0.872
- relative viability (NCI-H1734; first compound 1.265 µM): 0.499
- relative viability (NCI-H1734; first compound 4 µM): 0.531
- relative viability (NCI-H1793; first compound 0.04 µM): 0.65
- relative viability (NCI-H1793; first compound 0.1265 µM): 0.788
- relative viability (NCI-H1793; first compound 0.4 µM): 0.713
- relative viability (NCI-H1793; first compound 1.265 µM): 0.728
- relative viability (NCI-H1793; first compound 4 µM): 0.483
- relative viability (NCI-H1975; first compound 0.04 µM): 0.916
- relative viability (NCI-H1975; first compound 0.1265 µM): 0.731
- relative viability (NCI-H1975; first compound 0.4 µM): 0.713
- relative viability (NCI-H1975; first compound 1.265 µM): 0.541
- relative viability (NCI-H1975; first compound 4 µM): 0.353
- relative viability (NCI-H2023; first compound 0.04 µM): 0.779
- relative viability (NCI-H2023; first compound 0.1265 µM): 0.816
- relative viability (NCI-H2023; first compound 0.4 µM): 0.597
- relative viability (NCI-H2023; first compound 1.265 µM): 0.252
- relative viability (NCI-H2023; first compound 4 µM): 0.199
- relative viability (NCI-H2085; first compound 0.04 µM): 0.855
- relative viability (NCI-H2085; first compound 0.1265 µM): 0.821
- relative viability (NCI-H2085; first compound 0.4 µM): 0.578
- relative viability (NCI-H2085; first compound 1.265 µM): 0.428
- relative viability (NCI-H2085; first compound 4 µM): 0.37
- relative viability (NCI-H2342; first compound 0.04 µM): 1.09
- relative viability (NCI-H2342; first compound 0.1265 µM): 0.843
- relative viability (NCI-H2342; first compound 0.4 µM): 1.08
- relative viability (NCI-H2342; first compound 1.265 µM): 0.91
- relative viability (NCI-H2342; first compound 4 µM): 0.824
- relative viability (NCI-H358; first compound 0.04 µM): 0.686
- relative viability (NCI-H358; first compound 0.1265 µM): 0.83
- relative viability (NCI-H358; first compound 0.4 µM): 0.685
- relative viability (NCI-H358; first compound 1.265 µM): 0.259
- relative viability (NCI-H358; first compound 4 µM): 0.309
- relative viability (NCI-H441; first compound 0.04 µM): 1.08
- relative viability (NCI-H441; first compound 0.1265 µM): 0.981
- relative viability (NCI-H441; first compound 0.4 µM): 0.842
- relative viability (NCI-H441; first compound 1.265 µM): 0.832
- relative viability (NCI-H441; first compound 4 µM): 0.57
- relative viability (NCI-H460; first compound 0.04 µM): 0.901
- relative viability (NCI-H460; first compound 0.1265 µM): 0.932
- relative viability (NCI-H460; first compound 0.4 µM): 0.628
- relative viability (NCI-H460; first compound 1.265 µM): 0.12
- relative viability (NCI-H460; first compound 4 µM): 0.112
- relative viability (NCI-H838; first compound 0.04 µM): 1.08
- relative viability (NCI-H838; first compound 0.1265 µM): 0.703
- relative viability (NCI-H838; first compound 0.4 µM): 0.801
- relative viability (NCI-H838; first compound 1.265 µM): 0.31
- relative viability (NCI-H838; first compound 4 µM): 0.285
- relative viability (SK-LU-1; first compound 0.04 µM): 0.848
- relative viability (SK-LU-1; first compound 0.1265 µM): 0.613
- relative viability (SK-LU-1; first compound 0.4 µM): 0.787
- relative viability (SK-LU-1; first compound 1.265 µM): 0.306
- relative viability (SK-LU-1; first compound 4 µM): 0.153
